Data reported in ChEMBL document CHEMBL1143075, “Taxanes from Shells and Leaves of Corylus avellana” (2008).

Test system: SK-MES-1
Assay: Inhibition of metaphase to anaphase transition in human SKMes1 cells at 10 nM
Type: functional

Question: `CC(=O)O[C@H]1C(=O)[C@@]2(C)[C@H]([C@H](OC(=O)c3ccccc3)[C@]3(O)C[C@H](OC(=O)[C@H](O)[C@@H](NC(=O)c4ccccc4)c4ccccc4)C(C)=C1C3(C)C)[C@]1(OC(C)=O)CO[C@@H]1C[C@@H]2O` [PACLITAXEL] was tested. Which Ratio did it give?
Answer: 0.026
